Drawing on patent US7795290B2 (Genentech, Inc., priority 2004, dated 2010), this text covers Activity for 35 molecules.

For the assay, the target named is T1, AKT1 (Homo sapiens, UniProt P31749).
T1 construct: purchased Upstate 14-276
T1 sequence (P31749 whole entry): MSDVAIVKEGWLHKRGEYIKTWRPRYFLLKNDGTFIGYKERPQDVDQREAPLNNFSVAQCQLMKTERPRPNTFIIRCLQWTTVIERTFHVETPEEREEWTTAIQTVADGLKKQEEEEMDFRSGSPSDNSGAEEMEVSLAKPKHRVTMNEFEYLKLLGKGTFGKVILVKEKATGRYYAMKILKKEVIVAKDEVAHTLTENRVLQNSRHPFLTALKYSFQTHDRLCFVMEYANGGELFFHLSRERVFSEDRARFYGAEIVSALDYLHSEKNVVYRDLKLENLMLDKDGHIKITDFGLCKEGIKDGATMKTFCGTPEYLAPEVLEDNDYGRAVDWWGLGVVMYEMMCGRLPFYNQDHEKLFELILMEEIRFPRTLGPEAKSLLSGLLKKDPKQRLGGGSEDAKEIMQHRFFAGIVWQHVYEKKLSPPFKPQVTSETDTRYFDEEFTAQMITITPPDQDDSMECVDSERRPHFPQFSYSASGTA
Nature of the assay: HTS ATP-utilizing enzyme assay, off-chip mobility-shift (Caliper HTS 250). Type of assay: biochemical. The conditions noted are these: kinase named = inhibitory activity/selectivity; test compound 10 μM; active = greater than three-sigma from mean. From the text:
The following procedures describe the reagent and plate preparation for a HTS of an ATP-utilizing enzyme, such as a protein kinase, run in an off-chip mobility-shift assay format. The following provides an HTS protocol for running a protein kinase HTS screen on a Caliper HTS 250 microfluidics system. The following parameters are dependent on the protein kinase used and can be determined by one skilled in the art as part of a typical assay development process. For example, the peptide substrate used can be identified from the current literature, by screening a peptide library of potential protein kinase substrates, or by other applicable means accepted in the field.
The following table provides typical screen assay parameters appropriate for a Caliper HTS 250 microfluidics system used to assay AKT1. Parameters used to assay other protein kinases can be determined by one skilled in the art.
Assays to determine the kinase inhibitory activity of chemical entities of the present disclosure were performed using a Caliper HTS 250 microfluidics device, Greiner U-bottom assay plates, a Multidrop for transfer of reagents, and Biomek FX (AMNCBM03) software. Initially, 2.4 μL of a 1 mM solution of a test compound in 100% DMSO was added to a well of the Greiner U-bottom plate. A single Greiner U-bottom plate having 24×16 wells could include multiple test compounds. […] Using the Biomek FX, 10 μL of 0.5 M EDTA was added by the span-8 to wells, indicated as 100% Control and 2.4 μL of 100% DMSO was added by the span-8 to wells, indicated as 0% Control. […] The total reaction volume in each well was 25 μL, and the concentration of the test compound was 10 μM. The assay plate was incubated for 2.5 hrs at 20° C. to 22° C. […] The inhibition of the ATP-utilizing enzyme, such as a particular protein kinase, was determined by measuring the ratio of the peptide substrate to phosphorylated product for each well of the assay plate using the Caliper HTS 250 system.
The use of three-sigma statistical limits represents a conservative method for declaring potential hits among targets. The three-sigma activity, as well as the mean population activity, can be different for each target enzyme.
Each chemical entity listed in Table 2 was tested for protein kinase inhibitory activity according to the biological assays and definitions of protein kinase inhibitory activity as described herein.
`COc1ccc(-c2csc(N(CCCN3CCCCCC3)C(=O)c3ccco3)n2)cc1` [N-(3-(azepan-1-yl)propyl)-N-(4-(4-methoxyphenyl)thiazol-2-yl)furan-2-carboxamide]: the Activity result is given as “AKT1”. With `COc1ccc(-c2csc(N(CCCN3CCCCCC3)C(=O)c3cccs3)n2)cc1` [N-(3-(azepan-1-yl)propyl)-N-(4-(4-methoxyphenyl)thiazol-2-yl)thiophene-2-carboxamide] the entry was “AKT1”; with `O=C(c1ccccc1)N(CCCN1CCCCCC1)c1nc(-c2ccccc2)cs1` [N-(3-(azepan-1-yl)propyl)-N-(4-phenylthiazol-2-yl)benzamide], “AKT1”. For `O=C(c1ccco1)N(CCCN1CCCCCC1)c1nc(-c2ccccc2)cs1` [N-(3-(azepan-1-yl)propyl)-N-(4-phenylthiazol-2-yl)furan-2-carboxamide], the Activity result was “AKT1”.

Take `O=C(c1cccs1)N(CCCN1CCCCCC1)c1nc(-c2ccccc2)cs1` [N-(3-(azepan-1-yl)propyl)-N-(4-phenylthiazol-2-yl)thiophene-2-carboxamide]: the Activity entry is recorded as “AKT1”. On to `CCN(CC)CCCN(C(=O)c1ccccc1)c1nc(-c2cc(OC)ccc2OC)cs1` [N-(3-(diethylamino)propyl)-N-(4-(2,5-dimethoxyphenyl)thiazol-2-yl)benzamide], for which the Activity entry is “AKT1”.

As for `CCN(CC)CCCN(C(=O)c1ccco1)c1nc(-c2cc(OC)ccc2OC)cs1` [N-(3-(diethylamino)propyl)-N-(4-(2,5-dimethoxyphenyl)thiazol-2-yl)furan-2-carboxamide], the Activity entry is on record as “AKT1”. In the case of `CCN(CC)CCCN(C(=O)c1cccs1)c1nc(-c2cc(OC)ccc2OC)cs1` [N-(3-(diethylamino)propyl)-N-(4-(2,5-dimethoxyphenyl)thiazol-2-yl)thiophene-2-carboxamide], the Activity result is listed as “AKT1”. On to `CCN(CC)CCCN(C(=O)c1cccs1)c1nc(-c2ccc(OC)c(OC)c2)cs1` [N-(3-(diethylamino)propyl)-N-(4-(3,4-dimethoxyphenyl)thiazol-2-yl)thiophene-2-carboxamide], for which the Activity result is recorded as “AKT1”. For `CCN(CC)CCCN(C(=O)c1ccccc1)c1nc(-c2ccc(OC)cc2)cs1` [N-(3-(diethylamino)propyl)-N-(4-(4-methoxyphenyl)thiazol-2-yl)benzamide], the Activity result is given as “AKT1”.

As for `CCN(CC)CCCN(C(=O)c1ccco1)c1nc(-c2ccccc2)cs1` [N-(3-(diethylamino)propyl)-N-(4-phenylthiazol-2-yl)furan-2-carboxamide], the Activity entry is “AKT1”.

Turning to `CCN(CC)CCCN(C(=O)c1cccs1)c1nc(-c2ccccc2)cs1` [N-(3-(diethylamino)propyl)-N-(4-phenylthiazol-2-yl)thiophene-2-carboxamide], the Activity result is on record as “AKT1”. On to `CS(=O)(=O)Nc1cccc(NC(=O)c2csc(N(CCCN3CCOCC3)C(=O)c3cccs3)n2)c1` [N-(3-(methylsulfonamido)phenyl)-2-(N-(3-morpholinopropyl)thiophene-2-carboxamido)thiazole-4-carboxamide], for which the Activity result is “AKT1”.

Regarding `CC(=O)NCCCN(C(=O)c1cccs1)c1nc(-c2cc3ccccc3o2)cs1` [N-(3-acetamidopropyl)-N-(4-(benzofuran-2-yl)thiazol-2-yl)thiophene-2-carboxamide], the Activity entry was “AKT1”. With `NC(=O)c1cccc(NC(=O)c2csc(N(CCCN3CCOCC3)C(=O)c3cccs3)n2)c1` [N-(3-carbamoylphenyl)-2-(N-(3-morpholinopropyl)thiophene-2-carboxamido)thiazole-4-carboxamide], the Activity entry is “AKT1”. Take `O=C(NCc1cccc(Cl)c1)c1csc(N(CCCN2CCOCC2)C(=O)c2cccs2)n1` [N-(3-chlorobenzyl)-2-(N-(3-morpholinopropyl)thiophene-2-carboxamido)thiazole-4-carboxamide]: the Activity entry is recorded as “AKT1”. With `COc1cccc(CNC(=O)c2csc(N(CCCN3CCOCC3)C(=O)c3cccs3)n2)c1` [N-(3-methoxybenzyl)-2-(N-(3-morpholinopropyl)thiophene-2-carboxamido)thiazole-4-carboxamide] the entry was “AKT1”; with `COc1cccc(NC(=O)c2csc(N(CCCN3CCOCC3)C(=O)c3cccs3)n2)c1` [N-(3-methoxyphenyl)-2-(N-(3-morpholinopropyl)thiophene-2-carboxamido)thiazole-4-carboxamide], “AKT1”. Turning to `O=C(c1cccs1)N(CCCN1CCOCC1)c1nc(-c2ccccc2C(F)(F)F)cs1` [N-(3-morpholinopropyl)-N-(4-(2-(trifluoromethyl)phenyl)thiazol-2-yl)thiophene-2-carboxamide], the Activity result is reported as “AKT1”.

Regarding `O=C(c1cccs1)N(CCCN1CCOCC1)c1nc(-c2ccccc2[N+](=O)[O-])cs1` [N-(3-morpholinopropyl)-N-(4-(2-nitrophenyl)thiazol-2-yl)thiophene-2-carboxamide], the Activity result was “AKT1”. With `O=C(c1cccs1)N(CCCN1CCOCC1)c1nc(-c2cccc(C(F)(F)F)c2)cs1` [N-(3-morpholinopropyl)-N-(4-(3-(trifluoromethyl)phenyl)thiazol-2-yl)thiophene-2-carboxamide], the Activity result is recorded as “AKT1”. As to `O=C1COc2ccc(-c3csc(N(CCCN4CCOCC4)C(=O)c4cccs4)n3)cc2N1` [N-(3-morpholinopropyl)-N-(4-(3-oxo-3,4-dihydro-2H-benzo[b][1,4]oxazin-6-yl)thiazol-2-yl)thiophene-2-carboxamide], the Activity entry is “AKT1”. On to `O=C(c1ccco1)N(CCCN1CCOCC1)c1nc(-c2cc(-c3ccccc3)no2)cs1` [N-(3-morpholinopropyl)-N-(4-(3-phenylisoxazol-5-yl)thiazol-2-yl)furan-2-carboxamide], for which the Activity entry is “AKT1”. The entry for `O=C(c1cccs1)N(CCCN1CCOCC1)c1nc(-c2cc(-c3ccccc3)no2)cs1` [N-(3-morpholinopropyl)-N-(4-(3-phenylisoxazol-5-yl)thiazol-2-yl)thiophene-2-carboxamide] is “AKT1”; for `O=C(c1cccs1)N(CCCN1CCOCC1)c1nc(-c2ccc(N3CCCC3)cc2)cs1` [N-(3-morpholinopropyl)-N-(4-(4-(pyrrolidin-1-yl)phenyl)thiazol-2-yl)thiophene-2-carboxamide] it is “AKT1”; for `O=C(c1cccs1)N(CCCN1CCOCC1)c1nc(-c2ccc(OC(F)(F)F)cc2)cs1` [N-(3-morpholinopropyl)-N-(4-(4-(trifluoromethoxy)phenyl)thiazol-2-yl)thiophene-2-carboxamide] it is “AKT1”. In the case of `CCCCCc1ccc(-c2csc(N(CCCN3CCOCC3)C(=O)c3cccs3)n2)cc1` [N-(3-morpholinopropyl)-N-(4-(4-pentylphenyl)thiazol-2-yl)thiophene-2-carboxamide], the Activity entry was “AKT1”. For `O=C(c1cccs1)N(CCCN1CCOCC1)c1nc(-c2ccc(-c3ccccn3)s2)cs1` [N-(3-morpholinopropyl)-N-(4-(5-(pyridin-2-yl)thiophen-2-yl)thiazol-2-yl)thiophene-2-carboxamide], the Activity result was “AKT1”. The entry for `O=C(c1cccs1)N(CCCN1CCOCC1)c1nc(-c2cc3cc([N+](=O)[O-])ccc3o2)cs1` [N-(3-morpholinopropyl)-N-(4-(5-nitrobenzofuran-2-yl)thiazol-2-yl)thiophene-2-carboxamide] is “AKT1”; for `O=C(c1cccs1)N(CCCN1CCOCC1)c1nc(-c2ccc3ccccc3c2)cs1` [N-(3-morpholinopropyl)-N-(4-(naphthalen-2-yl)thiazol-2-yl)thiophene-2-carboxamide] it is “AKT1”. For `O=C(c1cccs1)N(CCCN1CCOCC1)c1nc(-c2ccccn2)cs1` [N-(3-morpholinopropyl)-N-(4-(pyridin-2-yl)thiazol-2-yl)thiophene-2-carboxamide], the Activity result was “AKT1”.

Regarding `O=C(c1cccs1)N(CCCN1CCOCC1)c1nc(-c2cccs2)cs1` [N-(3-morpholinopropyl)-N-(4-(thiophen-2-yl)thiazol-2-yl)thiophene-2-carboxamide], the Activity entry is on record as “AKT1”. In the case of `O=C(c1cccs1)N(CCCN1CCOCC1)c1nc(C(F)(F)F)cs1` [N-(3-morpholinopropyl)-N-(4-(trifluoromethyl)thiazol-2-yl)thiophene-2-carboxamide], the Activity entry is on record as “AKT1”.

On to `Cc1ccc(-c2csc(N(CCCN3CCOCC3)C(=O)c3cccs3)n2)cc1` [N-(3-morpholinopropyl)-N-(4-p-tolylthiazol-2-yl)thiophene-2-carboxamide], for which the Activity result is listed as “AKT1”. Consider `O=C(c1ccccc1)N(CCCN1CCOCC1)c1nc(-c2ccccc2)cs1` [N-(3-morpholinopropyl)-N-(4-phenylthiazol-2-yl)benzamide], for which the Activity result is on record as “AKT1”.
